Assay results taken from paper PMC7979765, “trans-Translation inhibitors bind to a novel site on the ribosome and clear Neisseria gonorrhoeae in vivo” (Nature Communications, 2021).
Converted amounts (≈) assume the structure as drawn. “And” between values parts separate entries of the source, which are not always exact repeats. Equal values may be shown once. Read-outs that look alike come from different tables or passages of the source.

Experiments:
Streptococcus pneumoniae = test: MIC, microbroth dilution; format: cell-based
[1] = Multiplexed cytotoxicity assay (nuclei, ROS, TMRE); format: cell-based, human; conditions: human, human primary hepatocytes; for fold induction at 24 h, 1 μM: 1.00E+00 μM; for fold induction at 24 h, 10 μM: 1.00E+01 μM; for fold induction at 24 h, 100 μM: 1.00E+02 μM; for fold induction at 24 h, 0.1 μM: 1.00E-01 μM; for fold induction at 24 h, 0.0101 μM: 1.01E-02 μM; for fold induction at 24 h, 31.6 μM: 3.16E+01 μM; for fold induction at 24 h, 3.17 μM: 3.17E+00 μM; for fold induction at 24 h, 0.317 μM: 3.17E-01 μM; for fold induction at 24 h, 0.0318 μM: 3.18E-02 μM; for fold induction at 24 h, 0.00318 μM: 3.18E-03 μM
Experimental: (§1) Multiplexed cytotoxicity assay — Human primary hepatocytes were grown on collagen I coated optical plates, cultured in hepatocytes culture media in a humidified 5% CO2 atmosphere at 37 °C. Cells were incubated in the presence of MBX-4132 at 10 concentrations starting a 100 µM and serially diluted 3.16-fold for 24 h at 37 °C, incubated for 30 min with multiplexed fluorescent dyes (Hoescht, 6-carboxy-2’,7’-dichlorodihydrofluorescein diazetat, and TMRE) and imaged to allow visualization of nuclei, reactive oxygen species generation, and mitochondrial oxidation. A >3.5-fold induction of ROS was considered consistent with formation of ROS and a >2-fold change in TMRE signal indicated an increase or decrease in mitochondrial membrane potential.

[2] = system: Human primary hepatocytes; test: Multiplexed cytotoxicity assay (nuclei, ROS, TMRE); format: cell-based
Experimental: as §1

[3] = system: mitochondrial membrane potential (MMP, TMRE signal); test: Multiplexed cytotoxicity assay (nuclei, ROS, TMRE); format: cell-based, human; conditions: human, primary hepatocytes, 24 h, read-out: MMP inhibition (fold induction)
Experimental: as §1

[4] = system: reactive oxygen species (ROS) generation; test: Multiplexed cytotoxicity assay (nuclei, ROS, TMRE); format: cell-based, human; conditions: human, primary hepatocytes, 24 h
Experimental: as §1

Kir2.1 = target: T1, Kir2.1 (Homo sapiens, UniProt P63252); test: Cardiac Ion Channel Panel; format: cell-based; conditions: Kir2.1 antagonist; Peak $ End; CYL8032QP2DR; read-out: IC50 (µM) reported
T1 construct: Eurofins Discovery Services (contract assay) CYL8032QP2DR
Experimental: (§2) Several in vitro selectivity assays were performed at Eurofins Discovery Services using established methods and controls that behaved as expected (Supplementary Tables 5 and 6). […] For receptor panel profiling, MBX-4132 was evaluated at 10 μM and activity of >50% (agonist or antagonist; note that negative % inhibition indicates agonism) was scored as active.

Kv4.3/ChIP2 = target: T2, Kv4.3/ChIP2 (Homo sapiens, UniProt Q9UK17); test: Cardiac Ion Channel Panel; format: cell-based; conditions: Kv4.3/ChIP2 antagonist; Peak $ End; CYL8069QP2DR; read-out: IC50 (µM) reported
T2 construct: Eurofins Discovery Services (contract assay) CYL8069QP2DR
Experimental: as §2

Nav1.5 = target: T3, Nav1.5 (Homo sapiens, UniProt Q14524); test: Cardiac Ion Channel Panel; format: cell-based
T3 construct: Eurofins Discovery Services (contract assay) CYL8004QP2DR; CYL7004QP1DR; CYL7004QP2DR
Experimental: as §2

Nav1.5 late current = target: T4, Nav1.5 late current (Homo sapiens, UniProt Q14524); test: Cardiac Ion Channel Panel; format: cell-based
T4 construct: Eurofins Discovery Services (contract assay) CYL8004QP2DR; CYL7004QP1DR; CYL7004QP2DR
Experimental: as §2

hERG = target: T5, hERG (Homo sapiens, UniProt Q12809); test: Cardiac Ion Channel Panel; format: cell-based; conditions: hERG antagonist; CYL8038QP2DR; read-out: IC50 (µM) reported
T5 construct: Eurofins Discovery Services (contract assay) CYL8038QP2DR
Experimental: as §2

Monoamine Oxidase MAO-A = target: T6, Monoamine Oxidase MAO-A (Homo sapiens, UniProt P21397); test: Receptor Profiling 140010; format: biochemical; conditions: negative % inhibition indicates agonism
T6 construct: Eurofins Discovery Services (contract assay) 140010
Experimental: as §2

[5] = target: T7, Protein Tyrosine Kinase, LCK (Homo sapiens, UniProt P06239); test: Receptor Profiling 176020; format: biochemical
T7 construct: purchased Eurofins Discovery Services (Panlabs safety panel)
Experimental: as §2

Adrenergic β1 = target: T8, Adrenergic β1 (Homo sapiens, UniProt P08588); test: Receptor Profiling 204010; format: binding
T8 construct: purchased Eurofins Discovery Services (Panlabs safety panel)
Experimental: as §2

[6] = system: GABAA, Flunitrazepam, Central; test: Receptor Profiling 226600; format: binding, rat; conditions: 10 μM
Experimental: as §2

Glutamate, NMDA, Agonism = test: Receptor Profiling 232810; format: binding, rat; conditions: 10 μM
Experimental: as §2

Opiate Delta1 (OP1, DOP) = target: T9, Opiate Delta1 (OP1, DOP) (Homo sapiens, UniProt P41143); test: Receptor Profiling 260130; format: binding
T9 construct: purchased Eurofins Discovery Services (Panlabs safety panel)
Experimental: as §2

[7] = target: T10, Serotonin (5-hydroxytryptamine) 5-HT1A (Homo sapiens, UniProt P08908); test: Receptor Profiling 271110; format: binding
T10 construct: purchased Eurofins Discovery Services (Panlabs safety panel)
Experimental: as §2

[8] = target: T11, Transporter, Serotonin (5-Hyroxytryptamine) (SERT) (Homo sapiens, UniProt P31645); test: Receptor Profiling 274030; format: binding
T11 construct: purchased Eurofins Discovery Services 274030
Experimental: as §2

[9] = read-out: Mean MMP inhibition (fold induction)
[10] = read-out: Mean ROS (fold induction)

T4 sequence (Q14524 whole entry): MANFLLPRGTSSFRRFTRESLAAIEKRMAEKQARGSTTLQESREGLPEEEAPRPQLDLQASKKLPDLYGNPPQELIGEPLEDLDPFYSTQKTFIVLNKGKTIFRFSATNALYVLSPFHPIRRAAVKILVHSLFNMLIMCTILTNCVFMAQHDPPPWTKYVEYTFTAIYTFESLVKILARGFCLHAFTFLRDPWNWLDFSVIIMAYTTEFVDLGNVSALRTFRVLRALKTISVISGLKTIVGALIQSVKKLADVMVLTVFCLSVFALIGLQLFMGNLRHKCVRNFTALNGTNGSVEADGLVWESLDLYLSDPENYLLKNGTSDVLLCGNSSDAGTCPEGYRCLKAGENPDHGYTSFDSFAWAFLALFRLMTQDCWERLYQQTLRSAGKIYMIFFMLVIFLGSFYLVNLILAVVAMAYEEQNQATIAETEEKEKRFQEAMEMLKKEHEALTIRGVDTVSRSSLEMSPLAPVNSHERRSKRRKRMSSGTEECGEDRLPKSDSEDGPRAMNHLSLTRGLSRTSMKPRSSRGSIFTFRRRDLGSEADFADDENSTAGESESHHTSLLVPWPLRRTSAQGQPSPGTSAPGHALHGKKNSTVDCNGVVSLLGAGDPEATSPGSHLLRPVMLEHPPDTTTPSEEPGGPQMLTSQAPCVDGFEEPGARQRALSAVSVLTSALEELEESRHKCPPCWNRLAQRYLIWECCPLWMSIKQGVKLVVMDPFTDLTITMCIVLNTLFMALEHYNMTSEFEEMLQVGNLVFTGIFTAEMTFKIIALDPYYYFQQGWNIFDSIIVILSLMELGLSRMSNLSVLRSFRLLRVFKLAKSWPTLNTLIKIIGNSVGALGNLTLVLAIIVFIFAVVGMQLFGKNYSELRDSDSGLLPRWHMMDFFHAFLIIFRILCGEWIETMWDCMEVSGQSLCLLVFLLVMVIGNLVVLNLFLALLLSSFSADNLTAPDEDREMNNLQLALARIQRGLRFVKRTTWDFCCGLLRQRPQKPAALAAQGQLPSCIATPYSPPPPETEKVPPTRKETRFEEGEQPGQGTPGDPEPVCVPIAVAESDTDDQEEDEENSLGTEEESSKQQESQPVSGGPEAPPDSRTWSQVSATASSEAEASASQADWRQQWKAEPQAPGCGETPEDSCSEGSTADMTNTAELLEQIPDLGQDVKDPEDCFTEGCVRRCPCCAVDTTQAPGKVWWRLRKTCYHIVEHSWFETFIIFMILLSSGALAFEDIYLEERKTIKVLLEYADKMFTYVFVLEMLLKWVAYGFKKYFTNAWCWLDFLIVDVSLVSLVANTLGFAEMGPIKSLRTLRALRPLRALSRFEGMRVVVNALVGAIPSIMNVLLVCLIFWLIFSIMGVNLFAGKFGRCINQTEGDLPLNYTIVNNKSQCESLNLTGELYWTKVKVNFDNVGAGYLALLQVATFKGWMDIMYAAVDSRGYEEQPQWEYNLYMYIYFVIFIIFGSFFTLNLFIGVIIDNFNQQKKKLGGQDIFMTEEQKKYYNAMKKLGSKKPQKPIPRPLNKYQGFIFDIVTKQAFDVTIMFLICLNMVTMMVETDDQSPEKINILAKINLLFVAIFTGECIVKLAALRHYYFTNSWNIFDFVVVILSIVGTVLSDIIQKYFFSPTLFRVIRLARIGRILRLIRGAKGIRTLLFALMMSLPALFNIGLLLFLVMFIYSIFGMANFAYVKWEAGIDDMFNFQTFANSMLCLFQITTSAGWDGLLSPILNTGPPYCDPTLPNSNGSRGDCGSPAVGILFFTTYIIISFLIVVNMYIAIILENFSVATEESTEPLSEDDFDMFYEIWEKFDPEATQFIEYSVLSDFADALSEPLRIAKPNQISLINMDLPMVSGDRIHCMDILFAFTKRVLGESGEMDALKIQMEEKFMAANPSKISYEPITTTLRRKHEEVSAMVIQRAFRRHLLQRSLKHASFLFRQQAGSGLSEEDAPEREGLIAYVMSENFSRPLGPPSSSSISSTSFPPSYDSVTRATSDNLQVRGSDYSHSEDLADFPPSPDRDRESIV
T8 sequence (P08588 whole entry): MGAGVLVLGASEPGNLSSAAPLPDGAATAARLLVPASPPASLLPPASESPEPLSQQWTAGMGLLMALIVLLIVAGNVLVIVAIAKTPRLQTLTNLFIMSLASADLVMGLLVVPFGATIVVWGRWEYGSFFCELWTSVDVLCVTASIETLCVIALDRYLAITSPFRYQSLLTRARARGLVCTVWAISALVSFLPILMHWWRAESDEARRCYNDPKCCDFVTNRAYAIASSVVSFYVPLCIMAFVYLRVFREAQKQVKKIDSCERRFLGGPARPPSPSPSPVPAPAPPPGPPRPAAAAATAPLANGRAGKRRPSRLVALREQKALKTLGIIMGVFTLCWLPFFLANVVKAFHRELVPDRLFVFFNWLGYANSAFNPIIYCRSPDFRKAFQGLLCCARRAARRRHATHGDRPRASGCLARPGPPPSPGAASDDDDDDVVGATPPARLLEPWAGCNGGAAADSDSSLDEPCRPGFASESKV
T11 sequence (P31645 whole entry): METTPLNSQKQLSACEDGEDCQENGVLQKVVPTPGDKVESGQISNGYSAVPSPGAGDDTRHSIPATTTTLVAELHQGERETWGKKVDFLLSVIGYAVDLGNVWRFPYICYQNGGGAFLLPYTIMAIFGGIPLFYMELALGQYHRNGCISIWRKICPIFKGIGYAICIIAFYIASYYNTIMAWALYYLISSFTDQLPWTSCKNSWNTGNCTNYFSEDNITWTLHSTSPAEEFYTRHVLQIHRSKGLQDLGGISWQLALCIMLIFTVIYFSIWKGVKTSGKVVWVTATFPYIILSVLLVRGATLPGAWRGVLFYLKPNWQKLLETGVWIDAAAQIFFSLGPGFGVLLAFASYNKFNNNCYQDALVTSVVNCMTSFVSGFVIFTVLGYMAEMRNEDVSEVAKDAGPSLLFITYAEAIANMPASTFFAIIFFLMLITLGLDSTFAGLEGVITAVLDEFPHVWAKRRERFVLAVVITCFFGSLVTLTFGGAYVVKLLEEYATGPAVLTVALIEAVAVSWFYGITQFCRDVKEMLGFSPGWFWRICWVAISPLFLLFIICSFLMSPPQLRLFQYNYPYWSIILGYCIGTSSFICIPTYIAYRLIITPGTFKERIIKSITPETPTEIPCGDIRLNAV
T6 sequence (P21397 whole entry): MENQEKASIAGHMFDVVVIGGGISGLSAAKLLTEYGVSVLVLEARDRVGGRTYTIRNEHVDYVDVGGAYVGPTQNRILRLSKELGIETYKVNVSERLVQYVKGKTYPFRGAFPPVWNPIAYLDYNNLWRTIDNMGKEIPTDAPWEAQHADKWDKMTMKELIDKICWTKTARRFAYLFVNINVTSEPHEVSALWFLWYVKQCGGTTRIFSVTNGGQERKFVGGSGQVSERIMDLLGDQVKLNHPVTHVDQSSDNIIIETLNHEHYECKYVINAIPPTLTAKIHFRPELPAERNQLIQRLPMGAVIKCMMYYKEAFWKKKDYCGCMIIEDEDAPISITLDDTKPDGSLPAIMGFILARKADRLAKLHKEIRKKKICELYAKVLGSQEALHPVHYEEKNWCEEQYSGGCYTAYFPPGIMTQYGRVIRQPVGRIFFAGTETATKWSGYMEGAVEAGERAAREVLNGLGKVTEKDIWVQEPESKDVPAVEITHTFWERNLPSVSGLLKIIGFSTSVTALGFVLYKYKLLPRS
T10 sequence (P08908 whole entry): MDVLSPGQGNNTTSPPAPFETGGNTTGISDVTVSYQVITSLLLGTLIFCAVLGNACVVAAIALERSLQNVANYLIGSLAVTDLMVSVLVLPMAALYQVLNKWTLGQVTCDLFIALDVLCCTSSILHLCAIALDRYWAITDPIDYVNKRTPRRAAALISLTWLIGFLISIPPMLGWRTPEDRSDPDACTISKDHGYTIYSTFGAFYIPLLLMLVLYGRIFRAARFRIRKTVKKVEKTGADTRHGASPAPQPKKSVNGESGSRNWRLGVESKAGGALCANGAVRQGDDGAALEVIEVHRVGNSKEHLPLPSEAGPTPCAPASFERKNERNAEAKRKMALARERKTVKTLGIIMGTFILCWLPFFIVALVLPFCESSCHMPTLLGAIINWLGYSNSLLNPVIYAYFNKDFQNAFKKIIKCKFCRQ
T2 sequence (Q9UK17 whole entry): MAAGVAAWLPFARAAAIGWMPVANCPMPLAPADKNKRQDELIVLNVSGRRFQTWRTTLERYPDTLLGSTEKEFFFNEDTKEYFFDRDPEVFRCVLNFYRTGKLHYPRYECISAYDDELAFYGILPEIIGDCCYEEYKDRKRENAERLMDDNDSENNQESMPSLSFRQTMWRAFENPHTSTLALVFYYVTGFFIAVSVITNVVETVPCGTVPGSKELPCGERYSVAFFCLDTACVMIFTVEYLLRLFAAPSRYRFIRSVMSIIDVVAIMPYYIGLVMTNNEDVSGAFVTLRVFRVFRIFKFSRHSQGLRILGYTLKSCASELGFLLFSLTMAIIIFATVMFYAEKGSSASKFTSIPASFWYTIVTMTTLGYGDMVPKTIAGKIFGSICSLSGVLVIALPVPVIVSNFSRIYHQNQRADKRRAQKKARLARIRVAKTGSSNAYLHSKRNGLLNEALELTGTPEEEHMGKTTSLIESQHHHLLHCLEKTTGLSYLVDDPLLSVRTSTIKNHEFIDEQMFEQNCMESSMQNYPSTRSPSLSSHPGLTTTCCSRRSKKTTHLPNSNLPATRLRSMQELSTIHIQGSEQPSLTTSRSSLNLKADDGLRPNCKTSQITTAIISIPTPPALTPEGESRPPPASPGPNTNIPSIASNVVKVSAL
T2 sequence (Q9NS61 whole entry partner): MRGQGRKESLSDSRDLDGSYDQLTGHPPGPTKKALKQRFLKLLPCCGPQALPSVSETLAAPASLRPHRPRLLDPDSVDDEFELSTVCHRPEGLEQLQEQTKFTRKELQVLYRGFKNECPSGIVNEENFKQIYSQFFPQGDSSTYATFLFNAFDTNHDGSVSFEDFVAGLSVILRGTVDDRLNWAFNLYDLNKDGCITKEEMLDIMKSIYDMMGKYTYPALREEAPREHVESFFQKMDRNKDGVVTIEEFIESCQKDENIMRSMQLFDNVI

O=C(Nc1nnc(-c2ccc(F)cc2)o1)N1CCc2ccccc2C1 [MBX-4132]
MIC (Streptococcus pneumoniae; Streptococcus pneumoniae ATCC 49619, replicates): 34 µg/mL (≈ 100 µM)
MIC (Streptococcus pneumoniae; Streptococcus pneumoniae, ATCC49619, strain ATCC 49619, read-out: MIC): 34 µg/mL (≈ 100 µM)
fold induction at 24 h, 1 μM [1, 9]: 0.9
fold induction at 24 h, 1 μM [1, 10]: 1.2
fold induction at 24 h, 10 μM [1, 9]: 1.1
fold induction at 24 h, 10 μM [1, 10]: 1.9
fold induction at 24 h, 100 μM [1, 9]: 0.8
fold induction at 24 h, 100 μM [1, 10]: 9.2
fold induction at 24 h, 0.1 μM [1, 9]: 1.2
fold induction at 24 h, 0.1 μM [1, 10]: 1.4
fold induction at 24 h, 0.0101 μM [1, 9]: 1
fold induction at 24 h, 0.0101 μM [1, 10]: 1.4
fold induction at 24 h, 31.6 μM [1, 9]: 1.1
fold induction at 24 h, 31.6 μM [1, 10]: 1.3
fold induction at 24 h, 3.17 μM [1, 9]: 1
fold induction at 24 h, 3.17 μM [1, 10]: 1.1
fold induction at 24 h, 0.317 μM [1, 9]: 0.9
fold induction at 24 h, 0.317 μM [1, 10]: 1.2
fold induction at 24 h, 0.0318 μM [1, 9]: 0.9
fold induction at 24 h, 0.0318 μM [1, 10]: 0.9
fold induction at 24 h, 0.00318 μM [1, 9]: 1
fold induction at 24 h, 0.00318 μM [1, 10]: 3.1
Attached live cells (%) ([2]; 1.00E+00 μM, 24 h): 106.3%
Attached live cells (%) ([2]; 1.00E+00 μM, replicates): 108.6% and 104.0%
Attached live cells (%) ([2]; 1.00E+01 μM, 24 h): 97.7%
Attached live cells (%) ([2]; 1.00E+01 μM, replicates): 104.3% and 91.1%
Attached live cells (%) ([2]; 1.00E+02 μM, 24 h): 69.6%
Attached live cells (%) ([2]; 1.00E+02 μM, replicates): 78.3% and 60.9%
Attached live cells (%) ([2]; 1.00E-01 μM, 24 h): 96.7%
Attached live cells (%) ([2]; 1.00E-01 μM, replicates): 101.6% and 91.8%
Attached live cells (%) ([2]; 1.01E-02 μM, 24 h): 109.5%
Attached live cells (%) ([2]; 1.01E-02 μM, replicates): 115.4% and 103.6%
Attached live cells (%) ([2]; 3.16E+01 μM, 24 h): 89.5%
Attached live cells (%) ([2]; 3.16E+01 μM, replicates): 92.0% and 87.0%
Attached live cells (%) ([2]; 3.17E+00 μM, 24 h): 99.6%
Attached live cells (%) ([2]; 3.17E+00 μM, replicates): 103.9% and 95.3%
Attached live cells (%) ([2]; 3.17E-01 μM, 24 h): 114.0%
Attached live cells (%) ([2]; 3.17E-01 μM, replicates): 124.2% and 103.8%
Attached live cells (%) ([2]; 3.18E-02 μM, 24 h): 97.5%
Attached live cells (%) ([2]; 3.18E-02 μM, replicates): 106.1% and 88.9%
Attached live cells (%) ([2]; 3.18E-03 μM, 24 h): 105.6%
Attached live cells (%) ([2]; 3.18E-03 μM, replicates): 110.9% and 100.3%
effect on mitochondrial membrane polarity (in words) ([2]; high concentrations, human hepatocytes): no effect
fold induction at 24 h, 1 μM ([3]; 1.00E+00 μM): 0.9
fold induction at 24 h, 10 μM ([3]; 1.00E+01 μM): 1.1
fold induction at 24 h, 0.1 μM ([3]; 1.00E-01 μM): 1.2
fold induction at 24 h, 0.0101 μM ([3]; 1.01E-02 μM): 1
fold induction at 24 h, 31.6 μM ([3]; 3.16E+01 μM): 1.1
fold induction at 24 h, 3.17 μM ([3]; 3.17E+00 μM): 1
fold induction at 24 h, 0.317 μM ([3]; 3.17E-01 μM): 0.9
fold induction at 24 h, 0.0318 μM ([3]; 3.18E-02 μM): 0.9
fold induction at 24 h, 0.00318 μM ([3]; 3.18E-03 μM): 1
fold induction at 24 h, 1 μM ([4]; 1.00E+00 μM): 1.2
fold induction at 24 h, 0.1 μM ([4]; 1.00E-01 μM): 1.4
fold induction at 24 h, 0.0101 μM ([4]; 1.01E-02 μM): 1.4
fold induction at 24 h, 3.17 μM ([4]; 3.17E+00 μM): 1.1
fold induction at 24 h, 0.317 μM ([4]; 3.17E-01 μM): 1.2
fold induction at 24 h, 0.0318 μM ([4]; 3.18E-02 μM): 0.9
IC50 (Kir2.1): > 30 µM
IC50 (Kv4.3/ChIP2): > 30 µM
IC50 (Nav1.5): > 30 µM
IC50 (Nav1.5 late current): > 30 µM
IC50 (Nav1.5 late current; read-out: Est. IC50, Antagonist mode): > 30 µM
IC50 (Nav1.5 late current; read-out: IC50 (µM) reported, Nav1.5 late current agonist, CYL7004QP1DR): > 30 µM
IC50 (Nav1.5 late current; read-out: IC50 (µM) reported, Nav1.5 late current antagonist, CYL7004QP2DR): > 30 µM
IC50 (hERG): > 30 µM
inhibition at 10 µM (Monoamine Oxidase MAO-A): -108%
inhibition at 10 µM [5]: 29%
inhibition at 10 µM (Adrenergic β1): -8%
% inhibition [6]: 3%
% inhibition (Glutamate, NMDA, Agonism): 8%
inhibition at 10 µM (Opiate Delta1 (OP1, DOP)): 5%
inhibition at 10 µM [7]: 30%
inhibition at 10 µM [8]: -10%
